According to patent US9371296B2, “Bicyclic 1,3,4-oxadiazole derivatives as sphingosine-1-phosphate receptors' modulators” (Allergan, Inc., priority 2014, dated 2016):

Biological target: T1, human S1P1 receptor (Homo sapiens, UniProt P21453)
T1 construct: expressed in transfected cells; membranes used
Assay: GTP γ35S binding assay for S1P1 activity
Format: biochemical
Conditions: 5 microgram membrane protein, test compounds 0.08 to 5,000 nM, 30 min at 25° C.
Method: Compounds were synthesized and tested for S1P1 activity using the GTP γ^35S binding assay. These compounds may be assessed for their ability to activate or block activation of the human S1P1 receptor in cells stably expressing the S1P1 receptor.
GTP γ^35S binding was measured in medium containing (mM) HEPES 25, pH 7.4, MgCl2 10, NaCl 100, dithiothreitol 0.5, digitonin 0.003%, 0.2 nM GTP γ^35S, and 5 microgram membrane protein in a volume of 150 microliters. Test compounds were included in the concentration range from 0.08 to 5,000 nM unless indicated otherwise. Membranes were incubated with 100 μM 5′-adenylylimmidodiphosphate for 30 min, and subsequently with 10 micromolar GDP for 10 min on ice. Drug solutions and membrane were mixed, and then reactions were initiated by adding GTP γ^35S and continued for 30 min at 25° C. Reaction mixtures were filtered over Whatman GF/B filters under vacuum, and washed three times with 3 mL of ice-cold buffer (HEPES 25, pH7.4, MgCl2 10 and NaCl 100). Filters were dried and mixed with scintillant, and counted for ^35S activity using a β-counter. Agonist-induced GTP γ^35S binding was obtained by subtracting that in the absence of agonist. Binding data were analyzed using a non-linear regression method. In case of antagonist assay, the reaction mixture contained 10 nM […] in the presence of test antagonist at concentrations ranging from 0.08 to 5000 nM.

T1 sequence (P21453 whole entry): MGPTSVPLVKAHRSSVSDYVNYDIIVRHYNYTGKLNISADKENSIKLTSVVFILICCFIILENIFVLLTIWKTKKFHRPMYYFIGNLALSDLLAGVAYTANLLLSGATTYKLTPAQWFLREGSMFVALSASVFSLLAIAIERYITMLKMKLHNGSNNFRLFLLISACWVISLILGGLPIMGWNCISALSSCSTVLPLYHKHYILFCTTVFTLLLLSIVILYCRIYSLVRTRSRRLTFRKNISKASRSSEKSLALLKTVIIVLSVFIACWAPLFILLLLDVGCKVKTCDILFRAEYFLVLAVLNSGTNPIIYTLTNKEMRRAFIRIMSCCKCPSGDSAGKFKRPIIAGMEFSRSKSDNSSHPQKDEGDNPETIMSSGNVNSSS

Q: With `CCC/C(=C\c1nnc(-c2ccc(CNCCCP(=O)(O)O)c3ccccc23)o1)c1ccccc1` [Compound 1, (3-{[(4-{5-[(1E)-2-phenylpent-1-en-1-yl]-1,3,4-oxadiazol-2-yl}naphthalen-1-yl)methyl]amino}propyl)phosphonic acid] as the compound, how does the EC50 read?
A: Its EC50 is 0.027 µM.

Q: With `CCC/C(=C\c1nnc(-c2ccc(CNCCC(=O)O)c3ccccc23)o1)c1ccccc1` [Compound 2, 3-{[(4-{5-[(1E)-2-phenylpent-1-en-1-yl]-1,3,4-oxadiazol-2-yl}naphthalen-1-yl)methyl]amino}propanoic acid] as the compound, how does the EC50 read?
A: Its EC50 is 0.571 µM.

Q: For `CCCC/C(=C\c1nnc(-c2ccc(CNCCCP(=O)(O)O)c3ccccc23)o1)c1ccccc1` [Compound 3, (3-{[(4-{5-[(1E)-2-phenylhex-1-en-1-yl]-1,3,4-oxadiazol-2-yl}naphthalen-1-yl)methyl]amino}propyl) phosphonic acid], which EC50 is on record?
A: The EC50 was 0.00252 µM.

Q: With `CCCC/C(=C\c1nnc(-c2ccc(CNCCC(=O)O)c3ccccc23)o1)c1ccccc1` [Compound 4, 3-{[(4-{5-[(1E)-2-phenylhex-1-en-1-yl]-1,3,4-oxadiazol-2-yl}naphthalen-1-yl)methyl]amino}propanoic acid] as the compound, how does the EC50 read?
A: Its EC50 is 0.085 µM.

Q: How did the EC50 turn out when `CCC/C(=C\c1nnc(-c2ccc(CNCCCP(=O)(O)O)c3ncccc23)o1)c1ccccc1` [Compound 5, (3-{[(5-{5-[(1E)-2-phenylpent-1-en-1-yl]-1,3,4-oxadiazol-2-yl}quinolin-8-yl)methyl]amino}propyl) phosphonic acid] was run?
A: Its EC50 is 0.00061 µM.

Q: How did the EC50 turn out when `CCC/C(=C\c1nnc(-c2ccc(CNCCC(=O)O)c3ncccc23)o1)c1ccccc1` [Compound 6, 3-{[(5-{5-[(1E)-2-phenylpent-1-en-1-yl]-1,3,4-oxadiazol-2-yl}quinolin-8-yl)methyl]amino}propanoic acid] was run?
A: The EC50 was 0.15 µM.

Q: For `CCCC/C(=C\c1nnc(-c2ccc(CNCCCP(=O)(O)O)c3ncccc23)o1)c1ccccc1` [Compound 7, (3-{[(5-{5-[(1E)-2-phenylhex-1-en-1-yl]-1,3,4-oxadiazol-2-yl}quinolin-8-yl)methyl]amino}propyl) phosphonic acid], which EC50 is on record?
A: Its EC50 is 0.0005 µM.

Q: For `CCCC/C(=C\c1nnc(-c2ccc(CNCCC(=O)O)c3ncccc23)o1)c1ccccc1` [Compound 8, 3-{[(5-{5-[(1E)-2-phenylhex-1-en-1-yl]-1,3,4-oxadiazol-2-yl}quinolin-8-yl)methyl]amino}propanoic acid], which EC50 is on record?
A: The EC50 was 0.033 µM.

Q: How did the EC50 turn out when `CCCCCC(Cc1nnc(-c2ccc(CNCCCP(=O)(O)O)c3ccccc23)o1)c1ccccc1` (stereo not drawn) [Compound 9, {3-[({4-[5-(2-phenylheptyl)-1,3,4-oxadiazol-2-yl]naphthalen-1-yl}methyl)amino]propyl}phosphonic acid] was run?
A: Its EC50 is 0.014 µM.

Q: For `CCCCCC(Cc1nnc(-c2ccc(CNCCC(=O)O)c3ccccc23)o1)c1ccccc1` (stereo not drawn) [Compound 10, 3-[({4-[5-(2-phenylheptyl)-1,3,4-oxadiazol-2-yl]naphthalen-1-yl}methyl)amino]propanoic acid], which EC50 is on record?
A: The EC50 was 0.32 µM.

Q: How did the EC50 turn out when `CCCC(Cc1nnc(-c2ccc(CNCCCP(=O)(O)O)c3ncccc23)o1)c1ccccc1` (stereo not drawn) [Compound 11, {3-[({5-[5-(2-phenylpentyl)-1,3,4-oxadiazol-2-yl]quinolin-8-yl}methyl)amino]propyl}phosphonic acid] was run?
A: Its EC50 is 0.00026 µM.

Q: `CCCC(Cc1nnc(-c2ccc(CNCCC(=O)O)c3ncccc23)o1)c1ccccc1` (stereo not drawn) [Compound 12, 3-[({5-[5-(2-phenylpentyl)-1,3,4-oxadiazol-2-yl]quinolin-8-yl}methyl)amino]propanoic acid] was tested. Which EC50 did it give?
A: Its EC50 is 0.34 µM.

Q: `CCC/C(=C\c1nnc(-c2ccc(CN3CC(C(=O)O)C3)c3ccccc23)o1)c1ccccc1` [Compound 13, 1-[(4-{5-[(1E)-2-phenylpent-1-en-1-yl]-1,3,4-oxadiazol-2-yl}naphthalen-1-yl)methyl]azetidine-3-carboxylic acid] was tested. Which EC50 did it give?
A: The EC50 was 0.607 µM.

Q: Which EC50 does the source give for `CCCC/C(=C\c1nnc(-c2ccc(CN3CC(C(=O)O)C3)c3ccccc23)o1)c1ccccc1` [Compound 14, 1-[(4-{5-[(1E)-2-phenylhex-1-en-1-yl]-1,3,4-oxadiazol-2-yl}naphthalen-1-yl)methyl]azetidine-3-carboxylic acid] here?
A: The EC50 was 0.156 µM.

Q: With `CCCC/C(=C\c1nnc(-c2ccc(CN3CC(C(=O)O)C3)c3ncccc23)o1)c1ccccc1` [Compound 16, 1-[(5-{5-[(1E)-2-phenylhex-1-en-1-yl]-1,3,4-oxadiazol-2-yl}quinolin-8-yl)methyl]azetidine-3-carboxylic acid] as the compound, how does the EC50 read?
A: Its EC50 is 0.029 µM.

Q: Which EC50 does the source give for `CCCCCC(Cc1nnc(-c2ccc(CN3CC(C(=O)O)C3)c3ccccc23)o1)c1ccccc1` (stereo not drawn) [Compound 17, 1-({4-[5-(2-phenylheptyl)-1,3,4-oxadiazol-2-yl]naphthalen-1-yl}methyl)azetidine-3-carboxylic acid] here?
A: Its EC50 is 0.942 µM.

Q: How did the EC50 turn out when `CCCC(Cc1nnc(-c2ccc(CN3CC(C(=O)O)C3)c3ncccc23)o1)c1ccccc1` (stereo not drawn) [Compound 18, 1-({5-[5-(2-phenylpentyl)-1,3,4-oxadiazol-2-yl]quinolin-8-yl}methyl)azetidine-3-carboxylic acid] was run?
A: The EC50 was 0.461 µM.

Q: For `CCCCC(Cc1nnc(-c2ccc(CNCCC(=O)O)c3ncccc23)o1)c1ccccc1` (stereo not drawn) [Compound 19, 3-[({5-[5-(2-phenylhexyl)-1,3,4-oxadiazol-2-yl]quinolin-8-yl}methyl)amino]propanoic acid], which EC50 is on record?
A: Its EC50 is 0.257 µM.

Q: `CCCCCC(Cc1nnc(-c2ccc(CNCCC(=O)O)c3ncccc23)o1)c1ccccc1` (stereo not drawn) [Compound 20, 3-[({5-[5-(2-phenylheptyl)-1,3,4-oxadiazol-2-yl]quinolin-8-yl}methyl)amino]propanoic acid] was tested. Which EC50 did it give?
A: Its EC50 is 0.417 µM.

Q: With `CCCCC(Cc1nnc(-c2ccc(CNCCCP(=O)(O)O)c3ncccc23)o1)c1ccccc1` (stereo not drawn) [Compound 21, {3-[({5-[5-(2-phenylhexyl)-1,3,4-oxadiazol-2-yl]quinolin-8-yl}methyl)amino]propyl}phosphonic acid] as the compound, how does the EC50 read?
A: Its EC50 is 0.00105 µM.

Q: With `CCCCCC(Cc1nnc(-c2ccc(CNCCCP(=O)(O)O)c3ncccc23)o1)c1ccccc1` (stereo not drawn) [Compound 22, {3-[({5-[5-(2-phenylheptyl)-1,3,4-oxadiazol-2-yl]quinolin-8-yl}methyl)amino]propyl}phosphonic acid] as the compound, how does the EC50 read?
A: The EC50 was 0.00287 µM.

Q: Which EC50 does the source give for `CCCCC(Cc1nnc(-c2ccc(CN3CC(C(=O)O)C3)c3ncccc23)o1)c1ccccc1` (stereo not drawn) [Compound 23, 1-({5-[5-(2-phenylhexyl)-1,3,4-oxadiazol-2-yl]quinolin-8-yl}methyl)azetidine-3-carboxylic acid] here?
A: The EC50 was 0.376 µM.

Q: For `CCCCCC(Cc1nnc(-c2ccc(CN3CC(C(=O)O)C3)c3ncccc23)o1)c1ccccc1` (stereo not drawn) [Compound 24, 1-({5-[5-(2-phenylheptyl)-1,3,4-oxadiazol-2-yl]quinolin-8-yl}methyl)azetidine-3-carboxylic acid], which EC50 is on record?
A: The EC50 was 1.09 µM.

Q: “(E)-1-((5-(5-(2-phenylpent-1-en-1-yI)-1,3,4-oxadiazol-2-yl)quinolin-8-yl)methyl)azetidine-3-carboxylic acid [Compound 15]” was tested. Which EC50 did it give?
A: Its EC50 is 0.163 µM.
